Measurements reported in ChEMBL document CHEMBL1201862, “PubChem BioAssay data set” (2004).
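Step 1: Grow cells in 96-well plates. Step 2: Expose to compound for 48 hours at 5 concentrations. Step 3: Interpolate endpoints linearly; if unreached, use highest concentration. Abbreviation: GI50, concentration required for 50% inhibition of growth.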 The source made the active and inactive calls. No stated cut-off is given here; in the data, active = GI50 up to about 1.1 µM and inactive = higher.

Key:
Test in all cases: DTP human tumour cell line panel, 48 h
OVCAR-4 = system: OVCAR-4
COLO 205 = system: COLO 205
OVCAR-3 = system: OVCAR-3
A549 = system: A549
A498 = system: A498
SF-268 = system: SF-268
IGROV-1 = system: IGROV-1
NCI-H23 = system: NCI-H23
TK-10 = system: TK-10
Malme-3M = system: Malme-3M
UACC-257 = system: UACC-257
EKVX = system: EKVX
NCI-H460 = system: NCI-H460
786-0 = system: 786-0
SW-620 = system: SW-620
HT-29 = system: HT-29

Measured: GI50

CC(C)OP(=O)(OC(C)C)/C(=N/Nc1ccc([N+](=O)[O-])cc1)NCCN/C(=N\Nc1ccc([N+](=O)[O-])cc1)P(=O)(OC(C)C)OC(C)C
inactive: OVCAR-4 7.19 µM | COLO 205 3.93 µM | OVCAR-3 3.62 µM | A549 3.72 µM | A498 3.7 µM | SF-268 > 100 µM | IGROV-1 2.31 µM | NCI-H23 2.31 µM | TK-10 6.03 µM | Malme-3M 8.83 µM | UACC-257 6.61 µM | EKVX 4.54 µM | NCI-H460 3.71 µM | 786-0 9.86 µM | SW-620 3.76 µM

C=CCC12CC(=O)CCC1c1ccc(OC)cc1C2=O (stereo not given)
inactive: OVCAR-4 > 100 µM | COLO 205 > 100 µM | OVCAR-3 > 100 µM | A549 > 100 µM | A498 > 100 µM | SF-268 > 100 µM | IGROV-1 > 100 µM | NCI-H23 > 100 µM | TK-10 > 100 µM | Malme-3M > 100 µM | UACC-257 > 100 µM | EKVX > 100 µM | HT-29 > 100 µM | NCI-H460 > 100 µM | 786-0 > 100 µM | SW-620 > 100 µM

Cc1ccc(NC(=O)C(=O)C(C#N)c2nc(-c3ccc(-c4ccccc4)cc3)cs2)c(C)c1 (stereo not given)
inactive: OVCAR-4 > 100 µM | COLO 205 > 100 µM | OVCAR-3 > 100 µM | A549 > 100 µM | A498 > 100 µM | SF-268 > 100 µM | IGROV-1 > 100 µM | TK-10 > 100 µM | Malme-3M > 100 µM | UACC-257 58.7 µM | EKVX > 100 µM | NCI-H460 > 100 µM | 786-0 > 100 µM | SW-620 17.4 µM

N#CC12CCC(O)C(CC1)C2=O (stereo not given)
inactive: OVCAR-4 > 100 µM | COLO 205 87.9 µM | OVCAR-3 > 100 µM | A549 > 100 µM | A498 > 100 µM | SF-268 > 100 µM | IGROV-1 > 100 µM | NCI-H23 > 100 µM | TK-10 > 100 µM | Malme-3M > 100 µM | UACC-257 > 100 µM | EKVX > 100 µM | HT-29 > 100 µM | NCI-H460 70 µM | 786-0 > 100 µM

Cn1nc(-c2ccccc2)c2c(/C=C/c3ccccc3)onc2c1=O
inactive: COLO 205 > 100 µM | OVCAR-3 50.6 µM | A549 > 100 µM | A498 > 100 µM | SF-268 43.9 µM | IGROV-1 > 100 µM | NCI-H23 > 100 µM | TK-10 > 100 µM | Malme-3M 71.4 µM | UACC-257 > 100 µM | EKVX 67.1 µM | HT-29 > 100 µM | NCI-H460 > 100 µM | 786-0 33 µM

COc1cc2c(cc1OC)C(CC1=C(c3ccccc3)CN3CCc4cc(OC)c(OC)cc4C3C1)NCC2 (stereo not given)
inactive: OVCAR-4 14 µM | COLO 205 15.2 µM | OVCAR-3 17.3 µM | A549 17 µM | A498 16.7 µM | SF-268 15 µM | IGROV-1 16.6 µM | NCI-H23 23.1 µM | TK-10 16.6 µM | Malme-3M 19.5 µM | UACC-257 16.2 µM | EKVX 21.8 µM | HT-29 10.4 µM | NCI-H460 18.8 µM | 786-0 15.7 µM | SW-620 17.7 µM

CC(=O)OC1=C2CC[C@@H]3C(CC[C@@]4(C)C3CC[C@@H]4OC(C)=O)[C@@]2(C)CC(C#N)C1=O (stereo not given in full)
inactive: OVCAR-4 24.4 µM | COLO 205 20.8 µM | OVCAR-3 21.2 µM | A549 30.8 µM | A498 6.01 µM | SF-268 31 µM | IGROV-1 19.2 µM | NCI-H23 27.9 µM | TK-10 23.6 µM | Malme-3M 5.58 µM | UACC-257 29.3 µM | EKVX 33 µM | HT-29 26.5 µM | NCI-H460 24.4 µM | 786-0 10.8 µM | SW-620 35.7 µM

CC(C)N1C(C)[C@@H](c2ccccc2)O[P@@]1(=O)CC1=CCCCC1 (stereo not given in full)
inactive: COLO 205 > 100 µM | OVCAR-3 79.3 µM | A549 > 100 µM | A498 > 100 µM | SF-268 > 100 µM | IGROV-1 > 100 µM | NCI-H23 > 100 µM | TK-10 > 100 µM | Malme-3M > 100 µM | UACC-257 > 100 µM | EKVX > 100 µM | HT-29 > 100 µM | NCI-H460 > 100 µM | 786-0 > 100 µM | SW-620 > 100 µM

CCOC(=O)N[C@@H]1C2CC(=O)C(O2)[C@@H]1OC (stereo not given in full)
inactive: OVCAR-4 > 100 µM | COLO 205 > 100 µM | OVCAR-3 > 100 µM | A549 > 100 µM | SF-268 > 100 µM | IGROV-1 > 100 µM | NCI-H23 > 100 µM | TK-10 > 100 µM | Malme-3M > 100 µM | UACC-257 > 100 µM | EKVX > 100 µM | HT-29 > 100 µM | NCI-H460 > 100 µM | 786-0 > 100 µM | SW-620 > 100 µM

COc1ccc(N/N=C(\CCN(C)C)c2ccccc2)cc1
inactive: OVCAR-4 4.67 µM | COLO 205 2.78 µM | OVCAR-3 2.81 µM | A549 1.67 µM | A498 14.9 µM | SF-268 1.62 µM | IGROV-1 4.18 µM | NCI-H23 4.43 µM | TK-10 2.23 µM | Malme-3M 11.7 µM | UACC-257 3.78 µM | EKVX 2.2 µM | HT-29 6.85 µM | NCI-H460 3.12 µM | 786-0 3.4 µM | SW-620 2.86 µM

c1cnc2c(c1)-n1cccc1C1(CCSC1)NN2 (stereo not given)
inactive: OVCAR-4 > 100 µM | COLO 205 > 100 µM | OVCAR-3 > 100 µM | A549 > 100 µM | SF-268 > 100 µM | NCI-H23 > 100 µM | TK-10 > 100 µM | Malme-3M > 100 µM | UACC-257 > 100 µM | EKVX > 100 µM | HT-29 > 100 µM | NCI-H460 > 100 µM | 786-0 > 100 µM | SW-620 > 100 µM

CCOC(=O)C1(Br)C(c2ccccc2)NC(=O)N(C2OC(COC(=O)c3ccccc3)C(OC(=O)c3ccccc3)C2OC(=O)c2ccccc2)C1(C)Br (stereo not given)
inactive: OVCAR-4 13.9 µM | COLO 205 24.4 µM | OVCAR-3 29.6 µM | A549 12.9 µM | A498 38.9 µM | SF-268 > 55.5 µM | IGROV-1 34.9 µM | NCI-H23 29.4 µM | TK-10 39.4 µM | Malme-3M 23.8 µM | UACC-257 18.6 µM | EKVX 36.7 µM | HT-29 18.2 µM | NCI-H460 31 µM | 786-0 12.9 µM | SW-620 14.4 µM

COc1cc(C)c(C)c(OC(=O)c2c(C)c(C)c(OC)c(C)c2OC)c1C
inactive: OVCAR-4 10.3 µM | COLO 205 3.18 µM | OVCAR-3 2.02 µM | A549 4.11 µM | A498 16.6 µM | SF-268 11.8 µM | IGROV-1 8.67 µM | NCI-H23 10.4 µM | TK-10 25.6 µM | Malme-3M 6.9 µM | UACC-257 17.8 µM | EKVX 15.3 µM | HT-29 3.85 µM | NCI-H460 3.98 µM | 786-0 12.3 µM | SW-620 3.86 µM

CCCCc1c2c(nc3c1CCc1cc4c(nc1-3)-c1nc3c(c(CCCC)c1CC4)CCC/C3=C\c1ccccc1)/C(=C/c1ccccc1)CCC2
inactive: COLO 205 > 100 µM | OVCAR-3 40.6 µM | A549 > 100 µM | A498 > 100 µM | SF-268 > 100 µM | IGROV-1 81.5 µM | NCI-H23 73.5 µM | TK-10 51.2 µM | Malme-3M > 100 µM | UACC-257 > 100 µM | EKVX > 100 µM | HT-29 85.3 µM | NCI-H460 28.2 µM | 786-0 25.2 µM | SW-620 67 µM

NC(CCC(=O)Nc1ccc(O)cc1)C(=O)O (stereo not given)
inactive: OVCAR-4 > 100 µM | COLO 205 > 100 µM | OVCAR-3 > 100 µM | A549 > 100 µM | A498 > 100 µM | SF-268 > 100 µM | TK-10 > 100 µM | Malme-3M > 100 µM | UACC-257 > 100 µM | EKVX > 100 µM | HT-29 > 100 µM | NCI-H460 > 100 µM | 786-0 > 100 µM | SW-620 > 100 µM

COC(=O)C(Cc1nc2ccccc2nc1O)C(=O)C(=O)Nc1ccc(OC)cc1[N+](=O)[O-] (stereo not given)
inactive: OVCAR-4 > 100 µM | COLO 205 > 100 µM | OVCAR-3 > 100 µM | A549 > 100 µM | SF-268 > 100 µM | IGROV-1 > 100 µM | NCI-H23 > 100 µM | TK-10 > 100 µM | Malme-3M > 100 µM | UACC-257 > 100 µM | EKVX > 100 µM | HT-29 82.8 µM | NCI-H460 > 100 µM | 786-0 > 100 µM | SW-620 > 100 µM

N#CC1(c2nc3ccccc3o2)C(=O)C(=O)N(c2ccc(Cl)c(Cl)c2)C(=O)C1=O
inactive: OVCAR-4 58.6 µM | COLO 205 > 100 µM | OVCAR-3 > 100 µM | A549 > 100 µM | SF-268 > 100 µM | NCI-H23 > 100 µM | TK-10 > 100 µM | Malme-3M > 100 µM | UACC-257 > 100 µM | EKVX > 100 µM | HT-29 > 100 µM | NCI-H460 > 100 µM | 786-0 > 100 µM | SW-620 > 100 µM

Fc1ccc(C2SCc3nc4ccccc4n32)cc1 (stereo not given)
inactive: OVCAR-4 36.3 µM | COLO 205 57 µM | OVCAR-3 24.4 µM | A549 45.3 µM | SF-268 54.3 µM | IGROV-1 47.9 µM | NCI-H23 28.9 µM | TK-10 24.4 µM | Malme-3M 25.8 µM | EKVX 58.1 µM | HT-29 47.9 µM | NCI-H460 34.4 µM | 786-0 42.9 µM | SW-620 74.6 µM
